Laboratory results: BindingDB's records for doi:10.1021/acs.jmedchem.9b01317 (Fudan University, 2020)

Experiment: Inhibition of RIPK3 in human HT-29 cells assessed as reduction in TSZ-induced necroptosis by Cell Titer Glo assay

Structure (SMILES): CC(=O)O[C@@H]1CCC(C)(C)[C@H]2C[C@@H](O)C3=C[C@@H](CCC(=O)[C@@]21C)[C@H](C)C3=O
- IC50: 0.2 µM
